# Source: US20260070945A1, “MACROCYCLIC IMMUNOMODULATORS” (Bristol-Myers Squibb Company, priority 2022, published 2026)
# *1 amine or outer side, *2 acyl side, *3 side chain or, on linkers, in order; H or OH if unused. Where a SMILES comes first, the peptide text is derived from it. Bridges are numbered along the chain shown (N, C = ends). [ ]: non-standard residue; d: D form. The star is where a group is joined. ξ: configuration not given here. Phe(3-CF3) = N[C@@H](Cc1cccc(C(F)(F)F)c1)C(=O)O; Ala(morpholin-4-yl) = N[C@@H](CN1CCOCC1)C(=O)O; Phe(4-COOH) = N[C@@H](Cc1ccc(C(=O)O)cc1)C(=O)O; Bip = N[C@@H](Cc1ccc(-c2ccccc2)cc1)C(=O)O; Phe(3-Me) = Cc1cccc(C[C@H](N)C(=O)O)c1; γGlu = O=C(O)[C@H](CCC(=O)[*:2])N[*:1]; Abu(3S-NH2) = C[C@H](N)[C@H](N)C(=O)O; NH(CH2)12COOH = O=C(O)CCCCCCCCCCCCN*; Val(3-OH) = CC(C)(O)[C@H](N)C(=O)O; 4Pal = N[C@@H](Cc1ccncc1)C(=O)O; Cha = N[C@@H](CC1CCCCC1)C(=O)O; Cit = NC(=O)NCCC[C@H](N)C(=O)O; Ile(3ξ) = CCC(C)[C@H](N)C(=O)O; Thr(3ξ) = CC(O)[C@H](N)C(=O)O; Carboxymethyl = O=C(O)C*; NMeA = CN[C@@H](C)C(=O)O; Orn = NCCC[C@H](N)C(=O)O; Aun = NCCCCCCCCCCC(=O)O; Dab = NCC[C@H](N)C(=O)O; Dap = NC[C@H](N)C(=O)O; AEEA = NCCOCCOCC(=O)O
# Molecular target: T1, PD-1/PD-L1 interaction (PE-labeled human PD-L1-Ig binding to Jurkat cell line over-expressing human PD-1) (Homo sapiens, UniProt Q15116)
# T1 construct: expressed in transfected cells; host or cells: Jurkat
# T1 sequence (Q15116 25-288): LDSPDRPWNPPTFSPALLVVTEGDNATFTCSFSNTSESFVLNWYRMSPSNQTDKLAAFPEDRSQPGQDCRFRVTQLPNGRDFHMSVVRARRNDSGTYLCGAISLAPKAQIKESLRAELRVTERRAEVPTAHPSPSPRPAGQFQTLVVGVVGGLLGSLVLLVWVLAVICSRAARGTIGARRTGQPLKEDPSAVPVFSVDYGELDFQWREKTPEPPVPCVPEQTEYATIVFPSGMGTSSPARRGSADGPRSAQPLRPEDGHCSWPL
# Experiment: Jurkat-PD-1 Cell Binding High-Content Screening Assay (CBA)
# Conditions: Jurkat-hPD-1 cells, PE-labeled PD-L1-Ig 20 nM final; read-out: Jurkat HPD1 PDL1 IC50
# Procedure, shortened: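 Cells 8×10^3/well, DMEM + 10% FCS; cpd 2 h, 37 °C; PE–PD-L1-Ig 20 nM final, 1 h; PFA fix + Hoechst 33342, 3× dPBS wash; high-content imager.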
row,IC50 [nM],SMILES
1,9.8,CC(C)C[C@H]1NC(=O)[C@H](C)N(C)C(=O)[C@H](C(C)C)NC(=O)[C@H](Cc2ccc(-c3ccccc3)cc2)NC(=O)[C@H](C(C)C)NC(=O)[C@H](Cc2c[nH]c3ccccc23)NC(=O)[C@H](CC(=O)O)NC(=O)[C@H](Cc2ccc(OCC(=O)O)cc2)NC(=O)[C@H](CN)NC(=O)CSC[C@@H](C(=O)NCC(=O)NCCOCCOCC(=O)N[C@@H](CCCCN)C(=O)NCCCCCCCCCCC(=O)O)NC(=O)[C@H](CO)NC(=O)[C@H](C(C)C)NC(=O)[C@H](CC2CCCCC2)NC(=O)[C@H](CCN)NC1=O [Example 2085] ({CH2CO}-[Dap]Y(Carboxymethyl)DWV[Bip]V[NMeA][dL][Dab][Cha]VSCG[AEEA]K[Aun]-OH; thioether N-14)
2,16.4,CC(C)C[C@@H]1NC(=O)[C@H](Cc2c[nH]c3ccccc23)NC(=O)[C@H](CC(=O)O)NC(=O)[C@H](Cc2ccncc2)NC(=O)[C@H](Cc2ccc(OCC(=O)O)cc2)NC(=O)CSC[C@@H](C(=O)NCCOCCOCC(=O)N[C@@H](CCCNC(N)=O)C(=O)NCCCCCCCCCCC(=O)O)NC(=O)[C@H](CCCNC(N)=O)NC(=O)[C@H](C(C)C)NC(=O)[C@H](CC2CCCCC2)NC(=O)[C@H](CCN)NC(=O)[C@@H](CC(C)C)NC(=O)[C@H](C)N(C)C(=O)[C@H](C(C)C)NC(=O)[C@H](Cc2ccc(-c3ccccc3)cc2)NC1=O [Example 2174] ({CH2CO}-Y(Carboxymethyl)[4Pal]DWL[Bip]V[NMeA][dL][Dab][Cha]V[Cit]C[AEEA][Cit][Aun]-OH; thioether N-14)
3,66.2,CCC(C)[C@@H]1NC(=O)[C@H](Cc2ccc(-c3ccccc3)cc2)NC(=O)[C@H](CC(C)C)NC(=O)[C@H](Cc2c[nH]c3ccccc23)NC(=O)[C@H](CC(=O)O)NC(=O)[C@H](Cc2ccc(O)cc2)NC(=O)[C@H](Cc2ccncc2)NC(=O)CSC[C@@H](C(=O)N[C@@H](CN)C(=O)NCCOCCOCC(=O)NCCCCCCCCCCC(=O)O)NC(=O)[C@H](CO)NC(=O)[C@H](C(C)C)NC(=O)[C@H](CC(C)C)NC(=O)[C@H](CC(N)=O)NC(=O)[C@@H](CC(C)C)NC(=O)[C@H](C)N(C)C1=O (stereo partly drawn) [Example 2053] ({CH2CO}-[4Pal]YDWL[Bip][Ile(3ξ)][NMeA][dL]NLVSC[Dap][AEEA][Aun]-OH; thioether N-14)
4,122,CC(C)C[C@@H]1NC(=O)[C@H](Cc2c[nH]c3ccccc23)NC(=O)[C@H](CC(=O)O)NC(=O)[C@H](Cc2ccc(O)cc2)NC(=O)[C@H](Cc2ccncc2)NC(=O)CSC[C@@H](C(=O)N[C@@H](CCCN)C(=O)NCCOCCOCC(=O)NCCCCCCCCCCC(=O)O)NC(=O)[C@H](CCCN)NC(=O)[C@H](C(C)C)NC(=O)[C@H](CC2CCCCC2)NC(=O)[C@H](CCN)NC(=O)[C@@H](CC(C)C)NC(=O)[C@H](C)N(C)C(=O)[C@H](C(C)C)NC(=O)[C@H](Cc2ccc(-c3ccccc3)cc2)NC1=O [Example 2161] ({CH2CO}-[4Pal]YDWL[Bip]V[NMeA][dL][Dab][Cha]V[Orn]C[Orn][AEEA][Aun]-OH; thioether N-14)
5,21.5,CC(C)C[C@H]1NC(=O)[C@H](C)N(C)C(=O)[C@H](CCC(N)=O)NC(=O)[C@H](Cc2ccc(-c3ccccc3)cc2)NC(=O)[C@H](Cc2ccc(C(=O)O)cc2)NC(=O)[C@H](Cc2cccc(C(F)(F)F)c2)NC(=O)[C@H](CC(=O)O)NC(=O)[C@H](Cc2ccc(OCC(=O)O)cc2)NC(=O)[C@H]([C@H](C)N)NC(=O)CSC[C@@H](C(=O)N[C@@H](CCN)C(=O)NCCOCCOCC(=O)N[C@@H](CCC(=O)NCCOCCOCC(=O)NCCCCCCCCCCCCC(=O)O)C(=O)O)NC(=O)[C@H](Cc2c[nH]cn2)NC(=O)[C@H](C(C)(C)O)NC(=O)[C@H](CC2CCCCC2)NC(=O)[C@H](CCN)NC1=O [Example 1203] ({CH2CO}-[Abu(3S-NH2)]Y(Carboxymethyl)D[Phe(3-CF3)][Phe(4-COOH)][Bip]Q[NMeA][dL][Dab][Cha][Val(3-OH)]HC[Dab][AEEA][γGlu][AEEA]-{NH(CH2)12COOH}; thioether N-14)
6,15.6,CC(C)C[C@H]1NC(=O)[C@H](C)N(C)C(=O)[C@H](CCCNC(N)=O)NC(=O)[C@H](Cc2ccc(-c3ccccc3)cc2)NC(=O)[C@H](Cc2ccc(C(=O)O)cc2)NC(=O)[C@H](Cc2cccc(C(F)(F)F)c2)NC(=O)[C@H](CC(=O)O)NC(=O)[C@H](Cc2ccc(OCC(=O)O)cc2)NC(=O)[C@H](CN2CCOCC2)NC(=O)CSC[C@@H](C(=O)N[C@@H](CCN)C(=O)NCCCCCCCCCCCCC(=O)O)NC(=O)[C@H](Cc2c[nH]cn2)NC(=O)[C@H](C(C)(C)O)NC(=O)[C@H](CC2CCCCC2)NC(=O)[C@H](CCN)NC1=O [Example 1193] ({CH2CO}-[Ala(morpholin-4-yl)]Y(Carboxymethyl)D[Phe(3-CF3)][Phe(4-COOH)][Bip][Cit][NMeA][dL][Dab][Cha][Val(3-OH)]HC[Dab]-{NH(CH2)12COOH}; thioether N-14)
7,80.6,Cc1cccc(C[C@@H]2NC(=O)[C@H](CC(=O)O)NC(=O)[C@H](Cc3ccc(OCC(=O)O)cc3)NC(=O)[C@H](CCCCN)NC(=O)CSC[C@@H](C(=O)N[C@@H](CCCCN)C(=O)NCCCCCCCCCCC(=O)O)NC(=O)[C@H]([C@@H](C)O)NC(=O)[C@H](C(C)C)NC(=O)[C@H](CC3CCCCC3)NC(=O)[C@H](CCN)NC(=O)[C@@H](CC(C)C)NC(=O)[C@H](C)N(C)C(=O)[C@H](Cc3ccc(OCC(=O)O)cc3)NC(=O)[C@H](Cc3ccc(-c4ccccc4)cc3)NC(=O)[C@H](Cc3ccc(C(=O)O)cc3)NC2=O)c1 [Example 1226] ({CH2CO}-KY(Carboxymethyl)D[Phe(3-Me)][Phe(4-COOH)][Bip]Y(Carboxymethyl)[NMeA][dL][Dab][Cha]VTCK[Aun]-OH; thioether N-14)
8,47.1,CC(C)C[C@@H]1NC(=O)[C@H](Cc2c[nH]c3ccccc23)NC(=O)[C@H](CC(=O)O)NC(=O)[C@H](Cc2ccc(C(=O)O)cc2)NC(=O)[C@H](Cc2ccc(OCC(=O)O)cc2)NC(=O)CSC[C@@H](C(=O)NCCOCCOCC(=O)NCCCCCCCCCCC(=O)O)NC(=O)[C@H](CCC(=O)O)NC(=O)[C@H](C(C)(C)O)NC(=O)[C@H](CC2CCCCC2)NC(=O)[C@H](CCN)NC(=O)[C@@H](CC(C)C)NC(=O)[C@H](C)N(C)C(=O)[C@H](C(C)C)NC(=O)[C@H](Cc2ccc(-c3ccccc3)cc2)NC1=O [Example 1112] ({CH2CO}-Y(Carboxymethyl)[Phe(4-COOH)]DWL[Bip]V[NMeA][dL][Dab][Cha][Val(3-OH)]EC[AEEA][Aun]-OH; thioether N-14)
9,16.9,CC(C)C[C@H]1NC(=O)[C@H](C)N(C)C(=O)[C@H](Cc2ccc(OCC(=O)O)cc2)NC(=O)[C@H](Cc2ccc(-c3ccccc3)cc2)NC(=O)[C@H](Cc2ccc(OCC(=O)O)cc2)NC(=O)[C@H](Cc2cccc(C(F)(F)F)c2)NC(=O)[C@H](CC(=O)O)NC(=O)[C@H](Cc2ccc(OCC(=O)O)cc2)NC(=O)[C@H]([C@@H](C)O)NC(=O)CSC[C@@H](C(=O)N[C@@H](CCN)C(=O)NCCOCCOCC(=O)NCCCCCCCCCCC(=O)O)NC(=O)[C@H](CCC(=O)O)NC(=O)[C@H](C(C)C)NC(=O)[C@H](CC2CCCCC2)NC(=O)[C@H](CCN)NC1=O [Example 1228] ({CH2CO}-TY(Carboxymethyl)D[Phe(3-CF3)]Y(Carboxymethyl)[Bip]Y(Carboxymethyl)[NMeA][dL][Dab][Cha]VEC[Dab][AEEA][Aun]-OH; thioether N-14)
10,17.4,CCC(C)[C@@H]1NC(=O)[C@H](Cc2ccc(-c3ccccc3)cc2)NC(=O)[C@H](CC(C)C)NC(=O)[C@H](Cc2cccc(C)c2)NC(=O)[C@H](CC(=O)O)NC(=O)[C@H](Cc2ccc(OCC(=O)O)cc2)NC(=O)[C@H](Cc2ccc(OCC(=O)O)cc2)NC(=O)CSC[C@@H](C(=O)NCCOCCOCC(=O)N[C@@H](CCC(=O)NCCCCCCCCCCC(=O)O)C(=O)O)NC(=O)[C@H](CO)NC(=O)[C@H](C(C)C)NC(=O)[C@H](CC(C)C)NC(=O)[C@H](CCN)NC(=O)[C@@H](CC(C)C)NC(=O)[C@H](C)N(C)C1=O (stereo partly drawn) [Example 2043] ({CH2CO}-Y(Carboxymethyl)Y(Carboxymethyl)D[Phe(3-Me)]L[Bip][Ile(3ξ)][NMeA][dL][Dab]LVSC[AEEA][γGlu][Aun]-OH; thioether N-14)

# Same assay, conditions: PE-labeled PD-L1-Ig 20 nM final, Jurkat-hPD-1 cells; read-out: Jurkat HPD1 PDL1 IC50
row,IC50 [nM],SMILES
1,305,Cc1cccc(C[C@@H]2NC(=O)[C@H](CC(=O)O)NC(=O)[C@H](Cc3ccc(OCC(=O)O)cc3)NC(=O)[C@H](Cc3ccncc3)NC(=O)CSC[C@@H](C(=O)NCCOCCOCC(=O)NCCOCCOCC(=O)NCCCCCCCCCCC(=O)O)NC(=O)[C@H](CCC(=O)O)NC(=O)[C@H](C(C)(C)O)NC(=O)[C@H](CC3CCCCC3)NC(=O)[C@H](CCN)NC(=O)[C@@H](CC(C)C)NC(=O)[C@H](C)N(C)C(=O)[C@H](Cc3ccc(C(=O)O)cc3)NC(=O)[C@H](Cc3ccc(-c4ccccc4)cc3)NC(=O)[C@H](Cc3ccc(C(=O)O)cc3)NC2=O)c1 [Example 2486] ({CH2CO}-[4Pal]Y(Carboxymethyl)D[Phe(3-Me)][Phe(4-COOH)][Bip][Phe(4-COOH)][NMeA][dL][Dab][Cha][Val(3-OH)]EC[AEEA][AEEA][Aun]-OH; thioether N-14)
2,16.8,CCC(C)[C@@H]1NC(=O)[C@H](Cc2ccc(-c3ccccc3)cc2)NC(=O)[C@H](C(C)C)NC(=O)[C@H](Cc2c[nH]c3ccccc23)NC(=O)[C@H](CC(=O)O)NC(=O)[C@H](Cc2ccc(OCC(=O)O)cc2)NC(=O)[C@H](Cc2cnc[nH]2)NC(=O)CSC[C@@H](C(=O)N[C@H](C)C(=O)NCCOCCOCC(=O)NCCCCCCCCCCC(=O)O)NC(=O)[C@H](C(C)O)NC(=O)[C@H](C(C)(C)O)NC(=O)[C@H](CC2CCCCC2)NC(=O)[C@H](CCN)NC(=O)[C@@H](CC(C)C)NC(=O)[C@H](C)N(C)C1=O (stereo partly drawn) [Example 2514] ({CH2CO}-HY(Carboxymethyl)DWV[Bip][Ile(3ξ)][NMeA][dL][Dab][Cha][Val(3-OH)][Thr(3ξ)]C[dA][AEEA][Aun]-OH; thioether N-14)
